Read-outs that look alike come from different tables or passages of the source.
Experiments:
LNCaP = test: MTT cytotoxicity assay, LNCaP; assay type: cell-based, human; settings: 48 h
Description: (§1) We evaluated the cytotoxicity of 1c-6c, 1d-7d and of the positive control 1a-5a against a panel of human cancer cells using MTT (3-(4,5-dimethylthiazol-2-yl)-2,5-diphenyltetrazolium bromide) assay. The IC50 values were calculated based on three parallel experiments.
(§2) Cisplatin and oxaliplatin were purchased from Yurui Chemical Co. Ltd. (Shanghai, China). All of the other chemicals were obtained from commercial suppliers, such as Alfa […]
(§3) IonSpec QFT mass spectrometer with ESI ionization. 3-(4,5-dimethylthiazol-2-yl) […]
(§4) Phosphate-buffered saline (PBS) contains 137 mM
(§5) NaCl, 2.7 mM KCl, 10 mM Na2HPO4 and 2 mM KH2PO4. Fetal bovine serum (FBS), 0.25% trypsin/EDTA solution, and penicillin-streptomycin solution were purchased from […]
(§6) Invitrogen (Grand Island, NY, USA). […]
(§7) HeLa (cervical carcinoma cell line), MCF-7 (breast gland adenocarcinoma), LNCaP and PC3 (prostatic cancer), HepG-2 (hepatocellular carcinoma), A549 and A549R (lung carcinoma) were used for the MTT […]
(§8) In Vitro Cellular Cytotoxicity Assays
(§9) Cells seeded in 96-well plates were incubated in a 5% CO2 atmosphere in 100 µL of complete medium at 37 ℃ for 24 h. Then, 100 µL of freshly prepared culture medium containing drugs at different concentrations was added and incubated for another 48 h.
(§10) MTT (5 mg/mL, 20 µL) was added and incubated for 3 h. Finally, the medium was removed, and DMSO (150 µL) was added. The absorbance was measured at 570 nm using a Bio-Rad 680 microplate reader. The IC50 values were calculated using GraphPad […]
(§11) Prism software. […]

PC3 = test: MTT cytotoxicity assay, PC3; assay type: cell-based, human; settings: 48 h
Description: as §1, §2, §3, §4, §5, §6, §7, §8, §9, §10, §11

HepG-2 = test: MTT cytotoxicity assay, HepG-2; assay type: cell-based, human; settings: 48 h
Description: as §1, §2, §3, §4, §5, §6, §7, §8, §9, §10, §11

A549 = test: MTT cytotoxicity assay, A549; assay type: cell-based, human; settings: 48 h
Description: as §1, §2, §3, §4, §5, §6, §7, §8, §9, §10, §11

HeLa = test: MTT cytotoxicity assay, HeLa; assay type: cell-based, human; settings: 48 h
Description: as §1, §2, §3, §4, §5, §6, §7, §8, §9, §10, §11

MCF-7 = test: MTT cytotoxicity assay, MCF-7; assay type: cell-based, human; settings: 48 h
Description: as §1, §2, §3, §4, §5, §6, §7, §8, §9, §10, §11

A549R = test: MTT cytotoxicity assay, A549R (cisplatin-resistant); assay type: cell-based, human; settings: for IC50: MTT, 48 h
Description: as §1, §2, §3, §4, §5, §6, §7, §8, §9, §10, §11

293T = test: Viability of normal cells 293T, 48 h incubation assay; assay type: cell-based
Description: (§12) An ideal anticancer compound should be selective for cancer cells over normal healthy cells, thereby mitigating the undesired toxic side effects associated with chemotherapy.
(§13) Scheme 9. Synthetic route of 38b. Conditions and reagents: (a) Ac2O and NaOAc; (b) TMSN3, BF3OEt2, and DCM; (c) MeONa and MeOH rt overnight; (d) BnBr, NaH, and DMF overnight; (e) […]
(§14) Preparation of 46b and 47b
(§15) Compounds 46b (38%) and 47b (45%) were prepared according to the procedure described for compounds 20b and 21b, respectively.
(§16) Compound 48b (45%) was prepared according to the procedure described for compound […]
as §8
(§17) Cells seeded in 96-well plates were incubated in a 5% CO2 atmosphere in 100 µL of complete medium at 37 ℃ for 24 h. […]
(§18) MTT (5 mg/mL, 20 µL) was added and incubated for 3 h. […] The absorbance was measured at 570 nm using a Bio-Rad 680 microplate reader. The IC50 values were calculated using GraphPad Prism software. […]
(§19) For cytotoxicity assays using the GLUT1 inhibitor 4,6-O-ethylidene-α-D-glucose (EDG), phloretin and the OCT2 inhibitor Ctd., a similar procedure as described above was followed except that MCF-7 cells (3500 cells/well) were seeded on a 96 well plate in 100 µL of RPMI and incubated for 24 h at 37 °C. […] The cytotoxicity profiles of the compounds were evaluated using the MTT assay. […]

3T3 = test: Viability of normal cells 3T3, 48 h incubation assay; assay type: cell-based
Description: as §12, §13, §14, §15, §16, §8, §17, §18, §19

MCF-7 cells = test: MTT cytotoxicity with GLUT1 inhibitors (EDG, phloretin) and OCT2 inhibitor (Ctd.) in MCF-7 cells; assay type: cell-based, human; settings: for effect of EDG and phloretin on IC50 values: MCF-7
Description: For cytotoxicity assays, the GLUT1 inhibitors EDG (1) and phloretin (2), the OCT2 inhibitor Ctd. (cimetidine) (3), and the mixture of EDG and Ctd.(4) were selected to undergo a similar procedure as antitumor activity in vitro. MCF-7 cells were seeded on a 96 well plate in 100 μL of RPMI and were incubated for 24 h at 37°C, and EDG-containing RPMI medium, phloretin-containing RPMI medium and Ctd.-containing RPMI medium were used to render the serial dilution of the concentrated solutions of the platinum compounds, and 100 μL/well was added (resulting in final inhibitor concentrations of 75 mM, 100 μM and 3 mM). The cytotoxicity profiles of the compounds were evaluated using MTT assay. […]
as §8, §9
as §10, with “GraphPad Prism software. Technical repetitions and independent experiments were based on three” for “GraphPad”
For cytotoxicity assays using the GLUT1 inhibitor 4,6-O-ethylidene-α-D-glucose (EDG), phloretin and the OCT2 inhibitor Ctd., a similar procedure as described above was followed except that MCF-7 cells (3500 cells/well) were seeded on a 96 well plate in 100 µL of RPMI and incubated for 24 h at 37 °C. EDG, phloretin and Ctd. containing RPMI medium were used for serial dilution of the concentrated solutions of the platinum compounds, and 100 µL/well were added (resulting in final inhibitor concentrations of 75 mM, 100 µM and 3 mM, respectively). The cytotoxicity profiles of the compounds were evaluated using the MTT assay. […]

Stability in RPMI 1640 = assay type: physicochemical
Description: (§20) One of the advantages of inert Pt(IV) prodrugs is their enhanced stability in RPMI 1640 and whole human blood.

[1] = Stability in whole human blood; assay type: in vitro ADME
Description: as §20

human cancer cells = test: MTT cytotoxicity, summary over panel of human cancer cells; assay type: cell-based; settings: range over A549R, LnCaP, PC3
Description: as §1, §13, §14, §15, §16
In Vitro Cellular Cytotoxicity Assays […]
as §18, §19

Structure (SMILES)	IC50 (LNCaP)	IC50 (PC3)	IC50 (HepG-2)	IC50 (A549)	IC50 (HeLa)	IC50 (MCF-7)	IC50 (A549R)	RF: Resistance factor = IC50(A549R)/IC50(A549) (A549R)	other results
N.N.[Cl-].[Cl-].[OH-].[OH-].[Pt+4] [2a, reference compound]	50.8 ± 0.79 µM	61.4 ± 0.67 µM	50 ± 1.79 µM	> 100 µM	11.4 ± 1.56 µM	27 ± 0.34 µM	13.4 ± 2.57 µM		
O=C(CCC(=O)[O][Pt-2]12([OH])([NH2+][C@@H]3CCCC[C@H]3[NH2+]1)[O]C(=O)C(=O)[O]2)NCCCO[C@@H]1O[C@H](CO)[C@H](O)[C@H](O)[C@H]1O [5d]	12 ± 0.79 µM	6.27 ± 1.45 µM	1.77 ± 1.39 µM	2.29 ± 1.78 µM	0.58 ± 0.78 µM	0.35 µM	5.67 ± 1.69 µM		
CC(=O)OC[C@H]1O[C@@H](NC(=O)CCC(=O)[O][Pt-2]23([OH])([NH2+][C@@H]4CCCC[C@H]4[NH2+]2)[O]C(=O)C(=O)[O]3)[C@H](OC(C)=O)[C@@H](OC(C)=O)[C@@H]1O[C@H]1O[C@H](COC(C)=O)[C@@H](OC(C)=O)[C@H](OC(C)=O)[C@H]1OC(C)=O [4c]	> 100 µM	22.9 ± 0.78 µM	10.7 ± 1.49 µM	14.3 ± 1.48 µM	> 100 µM	7.21 ± 0.78 µM	25.2 ± 1.79 µM		
CC(=O)OC[C@H]1O[C@@H](O[C@H]2[C@H](OC(C)=O)[C@@H](OC(C)=O)[C@H](NC(=O)CCC(=O)[O][Pt-2]([NH3+])([NH3+])([OH])([Cl])[Cl])O[C@@H]2COC(C)=O)[C@H](OC(C)=O)[C@@H](OC(C)=O)[C@H]1OC(C)=O [1c]	> 100 µM	> 100 µM	11.6 ± 1.58 µM	36.4 ± 1.39 µM	18.2 ± 1.01 µM	24.2 ± 1.44 µM	4.26 ± 1.9 µM	0.12	
CC(=O)OC[C@H]1O[C@@H](O[C@H]2[C@H](OC(C)=O)[C@@H](OC(C)=O)[C@H](NC(=O)CCC(=O)[O][Pt-2]34([OH])([NH2+][C@@H]5CCCC[C@H]5[NH2+]3)[O]C(=O)C(=O)[O]4)O[C@@H]2COC(C)=O)[C@H](OC(C)=O)[C@@H](OC(C)=O)[C@H]1OC(C)=O [2c]	4.7 ± 0.89 µM	> 100 µM	59.3 ± 1.49 µM	14.5 ± 1.47 µM	4.05 ± 0.87 µM	8.29 ± 1.87 µM	8.37 ± 1.9 µM	0.58	
O=C(CCC(=O)[O][Pt-2]12([OH])([NH2+][C@@H]3CCCC[C@H]3[NH2+]1)[O]C(=O)C(=O)[O]2)NC[C@H]1OC(O)[C@H](O)[C@@H](O)[C@@H]1O (stereo partly shown) [6d]	20 ± 0.79 µM	66.6 ± 1.45 µM	4.1 ± 1.46 µM	29.9 ± 1.78 µM	2.88 ± 0.67 µM	0.89 ± 1.34 µM	47 ± 1.69 µM		IC50 (293T): 12.1 µM; IC50 (3T3): > 100 µM; IC50 with EDG, folds higher than 48 h IC50 (MCF-7 cells; MCF-7, EDG): 36 fold; IC50 with mixture of EDG and Ctd., folds higher than 48 h IC50 (MCF-7 cells; MCF-7, EDG + Ctd.): 95 fold; IC50 (MCF-7 cells; MCF-7, GLUT1 inhibitor EDG 75 mM, read-out: IC50 with EDG): 31.8 µM; IC50 (MCF-7 cells; MCF-7, GLUT1 inhibitor phloretin 100 μM, read-out: IC50 with phloretin): 38.7 µM; IC50 with Ctd., folds higher than 48 h IC50 (MCF-7 cells; MCF-7, OCT2 inhibitor Ctd. 3 mM): 82 fold; IC50 with phloretin, folds higher than 48 h IC50 (MCF-7 cells; MCF-7, phloretin): 44 fold; half-life (Stability in RPMI 1640; RPMI 1640): up to 170 h; remained unchanged (Stability in RPMI 1640; RPMI 1640, after 48 h): 66%; decomposition (Stability in RPMI 1640; RPMI medium, up to 12 h): No significant decomposition; t1/2 in whole human blood [1]: ~2.5 h
N.N.O=C(CCC(=O)[O][Pt]([OH])([Cl])[Cl])NCCO[C@H]1O[C@H](CO)[C@@H](O)[C@H](O)[C@@H]1O [3d]	> 100 µM	> 100 µM	13.2 ± 1.38 µM	1.9 ± 2.78 µM	3.01 ± 0.67 µM	45.1 ± 0.77 µM	> 100 µM		
CC(=O)OC[C@H]1O[C@H](NC(=O)CCC(=O)[O][Pt-2]23([OH])([NH2+][C@@H]4CCCC[C@H]4[NH2+]2)[O]C(=O)C(=O)[O]3)[C@@H](OC(C)=O)[C@@H](OC(C)=O)[C@@H]1OC(C)=O [6c]	20.1 ± 1.78 µM	7.06 ± 0.56 µM	50.9 ± 1.46 µM	23.8 ± 0.78 µM	16.8 ± 0.45 µM	20.8 ± 0.45 µM	> 100 µM		
O=C1[O][Pt]2([NH][C@@H]3CCCC[C@H]3[NH]2)[O]C1=O [3a, oxaliplatin, reference compound]	16.8 ± 0.34 µM	39.7 ± 0.76 µM	6.64 ± 1.79 µM	10.1 ± 1.2 µM	3.96 ± 0.75 µM	5.22 ± 2.78 µM	39.7 ± 0.69 µM	3.94	IC50 (human cancer cells): 16.8 to 39.7 µM; effect of EDG and phloretin on IC50 values (MCF-7 cells): not greatly different
N.N.[Cl][Pt][Cl] [1a, cisplatin, reference compound]	23.8 ± 0.89 µM	22.9 ± 1.45 µM	3.94 ± 0.39 µM	10.8 ± 1.98 µM	0.8 ± 0.93 µM	2.28 ± 0.56 µM	35.8 ± 1.69 µM		IC50 (human cancer cells): 16.8 to 39.7 µM; effect of EDG and phloretin on IC50 values (MCF-7 cells): not greatly different
CC(=O)OC[C@H]1O[C@@H](NC(=O)CCC(=O)[O][Pt-2]23([OH])([NH2+][C@@H]4CCCC[C@H]4[NH2+]2)[O]C(=O)C(=O)[O]3)[C@H](OC(C)=O)[C@@H](OC(C)=O)[C@H]1OC(C)=O [5c]	22.1 ± 1.45 µM	7.45 ± 0.56 µM	> 100 µM	17.5 ± 0.89 µM	32.2 ± 0.34 µM	17.89 ± 0.12 µM	74.1 ± 1.67 µM	4.24	
CC(=O)OC[C@H]1O[C@@H](NC(=O)CCC(=O)[O][Pt-2]([NH3+])([NH3+])([OH])([Cl])[Cl])[C@H](OC(C)=O)[C@@H](OC(C)=O)[C@@H]1O[C@H]1O[C@H](COC(C)=O)[C@@H](OC(C)=O)[C@H](OC(C)=O)[C@H]1OC(C)=O [3c]	> 100 µM	1.13 ± 0.45 µM	3.27 ± 1.67 µM	3.38 ± 1.49 µM	0.91 ± 0.54 µM	27.2 ± 1.56 µM	14.6 ± 1.78 µM	4.33	
NC1CCCCC1N.O=C1[O][Pt]([OH])([OH])[O]C1=O [4a, reference compound]	23 ± 0.89 µM	> 100 µM	> 100 µM	> 100 µM	15.8 ± 0.34 µM	> 100 µM	29.7 ± 0.64 µM		

— PMC6160541 (Frontiers in Chemistry, 2018)
